# Data taken from publication PMC4337798 (Biochimica et biophysica acta, 2010).
# Columns and labels:
# [1] = target: T1, gastric H,K-ATPase (HKα1) (Mus musculus, UniProt Q64436); experiment: K-ATPase activity dose response in gastric membrane vesicles; assay type: cell-based
# [2] = target: T1, gastric H,K-ATPase (HKα1); experiment: as above; assay type: cell-based; conditions: read-out: % inhibition at 100 μM
# T1 sequence (Q64436 whole entry): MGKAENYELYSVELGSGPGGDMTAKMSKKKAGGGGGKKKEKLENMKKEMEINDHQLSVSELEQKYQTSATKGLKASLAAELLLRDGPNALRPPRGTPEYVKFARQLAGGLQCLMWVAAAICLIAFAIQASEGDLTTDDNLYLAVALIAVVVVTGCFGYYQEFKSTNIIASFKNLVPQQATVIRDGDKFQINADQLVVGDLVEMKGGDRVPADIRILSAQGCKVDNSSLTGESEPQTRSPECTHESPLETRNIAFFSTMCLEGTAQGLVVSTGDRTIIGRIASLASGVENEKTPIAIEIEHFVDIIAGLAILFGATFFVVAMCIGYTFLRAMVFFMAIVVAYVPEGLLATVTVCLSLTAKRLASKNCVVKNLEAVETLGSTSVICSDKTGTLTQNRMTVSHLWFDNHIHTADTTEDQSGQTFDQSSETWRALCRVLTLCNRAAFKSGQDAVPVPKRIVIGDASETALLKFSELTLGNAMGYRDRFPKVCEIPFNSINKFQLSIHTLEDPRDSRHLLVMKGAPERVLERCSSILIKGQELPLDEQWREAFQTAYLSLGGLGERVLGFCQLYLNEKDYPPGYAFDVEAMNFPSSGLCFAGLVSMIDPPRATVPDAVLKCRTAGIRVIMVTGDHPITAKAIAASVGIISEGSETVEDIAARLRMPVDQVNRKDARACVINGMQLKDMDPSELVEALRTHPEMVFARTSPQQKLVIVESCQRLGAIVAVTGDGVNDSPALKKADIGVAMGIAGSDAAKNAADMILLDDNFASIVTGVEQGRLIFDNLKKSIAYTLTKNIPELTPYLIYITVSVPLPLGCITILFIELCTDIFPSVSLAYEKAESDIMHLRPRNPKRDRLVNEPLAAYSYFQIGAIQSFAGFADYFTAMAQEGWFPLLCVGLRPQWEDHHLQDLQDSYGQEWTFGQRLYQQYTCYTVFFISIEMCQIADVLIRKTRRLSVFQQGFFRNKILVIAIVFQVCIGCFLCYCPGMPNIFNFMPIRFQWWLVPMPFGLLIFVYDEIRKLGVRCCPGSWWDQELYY
# T1 sequence (P50992 whole entry partner): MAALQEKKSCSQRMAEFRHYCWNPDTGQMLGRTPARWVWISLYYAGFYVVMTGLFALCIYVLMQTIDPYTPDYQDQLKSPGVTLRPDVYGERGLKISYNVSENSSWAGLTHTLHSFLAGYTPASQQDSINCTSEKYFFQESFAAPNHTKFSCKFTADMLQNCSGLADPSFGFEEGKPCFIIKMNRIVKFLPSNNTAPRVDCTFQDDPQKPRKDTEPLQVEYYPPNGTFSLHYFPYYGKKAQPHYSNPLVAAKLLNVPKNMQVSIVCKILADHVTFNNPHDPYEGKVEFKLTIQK
SMILES,K-ATPase activity dose response in gastric membrane vesicles [1],inhibition at 100 µM [2] [%]
"CCN(c1nc(N)c(C(=O)N=C(N)N)nc1Cl)C(C)C [EIPA, 5-N-ethyl-N-isopropylamiloride]",Amiloride derivatives benzamil and EIPA had similar inhibitory effects on the gastric K-ATPase activity,
N=C(N)NC(=O)c1nc(Cl)c(N)nc1N [amiloride],,~65
NC(=NCc1ccccc1)NC(=O)c1nc(Cl)c(N)nc1N [benzamil],Amiloride derivatives benzamil and EIPA had similar inhibitory effects on the gastric K-ATPase activity,
